# Values of other authors, collected in US11666537B2, “Solid oral dosage form of irinotecan for the treatment of cancer” (Oncoral Pharma ApS, priority 2014, dated 2023).
# System: tumor cells
# Conditions: human and rodent tumor cell lines
compound,measurement,value
CCc1c2c(nc3ccc(O)cc13)-c1cc3c(c(=O)n1C2)COC(=O)[C@]3(O)CC [SN-38],times more cytotoxic than irinotecan,100-1000 times
